Assay results: patent US5731293A, “Esculetin derivatives, method for manufacture thereof, and pharmaceutical composition” (Kureha Chemical Industry Co., Ltd., priority 1994, dated 1998)

Columns and labels:
[1] = system: Crj: CD-1 (ICR) male mice; experiment: Acute toxicity, oral, male mice, 7-day observation; format: in vivo, mouse; conditions: 1000 and 2000 mg/kg, 7 days
Description: (§1) The toxicity of the esculetin derivatives of the present invention was examined. Typical examples of the present derivatives were administered orally at a dose of 2000 mg/kg (body weight) to male mice and male rats which were then observed for seven days. No deaths and no remarkable toxicity were observed. The esculetin derivatives of the present invention are extremely safe compounds (see Example 13).
(§2) The acute toxicity of the esculetin derivatives of the present invention was examined using Crj: CD-1 (ICR) male mice (6 weeks old) and Wistar male rats (6 weeks old). After 6-(β-2-acetamido-2-deoxy-D-glucopyranosyloxy)-7-(N,N-dimethylcarbamoyloxy)coumarin [Ib-2] […] In the experiments as above, two animals were used for each group.

Wistar male rats = experiment: Acute toxicity, oral, male rats, 7-day observation; format: in vivo, rat; conditions: 1000 and 2000 mg/kg, 7 days
Description: as §1, §2

[2] = system: interstitial collagenase (MMP-1); experiment: Inhibition of production of interstitial collagenase (MMP-1) in rabbit cartilage organ culture system, IL-1α stimulated; format: cell-based, rabbit (New Zealand White); conditions: IL-1α 100 units/ml, 48 hours; rabbit articular cartilage; values only in FIG. 1
Description: After the articular cartilages were collected from the shoulder and knee of rabbits (New Zealand White Rabbits, male, 6 weeks old) and divided into small pieces, cultivation experiment was started using Dulbecco's MEM medium containing 0.2% lactoalbumin. The compounds to be tested were dissolved in dimethylsulfoxide (DMSO) and then added to the medium. The concentration of DMSO was 0.25% by volume to the medium. After 2 hours from addition of the compounds to be tested, 100 units/ml of interleukin-1α (hereinafter referred to as the IL-1α) was added as a stimulant, and the cultivation was performed for 48 hours. Thereafter, the activity of MMP-1 in the supernatant of the culture was measured. Collageno kit (CLN-100) (Cosmo Bio Co., Ltd.) was used for the measurement of MMP-1.
The results are shown as the value of the mean value±standard error (n=4 per a group). As the esculetin derivative of the present invention, 6-(β-2-acetamido-2-deoxy-D-glucopyranosyloxy)-7-(N,N-dimethylcarbamoyloxy)coumarin [Ib-2] was used.
The abscissa is the percentage of the amounts of MMP-1 produced by adding both IL-1α and the compound to be tested as compared to the amounts of MMP-1 produced by the addition of IL-1α alone. When neither IL-1α nor the compound to be tested were added as a control test, MMP-1 was hardly produced.

[3] = Pharmacokinetic analysis in mouse femoral head cartilage (FHC) model; format: in vivo, BALB/C female mice implanted with FHC of S. D. male rats; conditions: oral, 534 mg/kg [Ib-2] vs esculetin 187 mg/kg; values only in FIG. 2
Description: The model mice were prepared in accordance with the method described in D. A. Willoughby et al., Agents Actions, vol. 38, pp. 126 to 134, 1993.
The left and right femoral head cartilages (FHC) were sterilely excised from S. D. male rats in a clean bench. The excised FHC's were washed with a Ham F-12 culture medium containing antibiotics and the wet weight was measured. Then, the FHC's were wrapped in two cotton sheets (about 1 cm×1 cm) and cooled with ice in the culture medium for storage until implantation. The FHC's were implanted sterilely under the dorsal skin of BALB/C female mice whose dorsal regions were shaved. The incisions were stitched, and then completely sealed with surgical adhesive (Toa Gosei, Japan).
The above mouse FHC model were used to pharmacokinetically compare esculetin and the esculetin derivative [Ib-2] of the present invention. Esculetin (187 mg/kg) and an equimolar amount, i.e., 534 mg/kg, of the esculetin derivative [Ib-2] of the present invention were administered orally three days after the implantation of the FHC. The FHC's were periodically removed and digested with papain. Then, an amount of the compounds taken up in the FHC was analyzed by high performance liquid chromatography. In the above experiments, three mice were used for each group.

In the case of `CC(=O)N[C@H]1[C@H](Oc2cc3ccc(=O)oc3cc2OC(=O)N(C)C)O[C@H](CO)[C@@H](O)[C@@H]1O` [Ib-2, 6-(β-2-acetamido-2-deoxy-D-glucopyranosyloxy)-7-(N,N-dimethylcarbamoyloxy)coumarin], the deaths [1] is reported as “No deaths were observed”, the “general state and body weight in comparison with the control group” value [1] is reported as “no change was observed” and the deaths (Wistar male rats) is reported as “No deaths were observed”. The “general state and body weight in comparison with the control group” value (Wistar male rats) was “no change was observed”, the “amounts of MMP-1 released under IL-1α stimulated condition” value [2] was “reduced the amounts of MMP-1 under IL-1α stimulated condition” and the “amount of compound taken up and retained in the FHC” value [3] was “taken up and retained in the FHC for a long time in a higher concentration as compared to esculetin”.
